The source made the active and inactive calls. The rule behind the calls is not given here.
What was measured:
RAW264.7 [1] = assay: Antiinflammatory activity in mouse RAW264.7 cells assessed as inhibition of LPS-induced nitirc oxide production preincubated for 1 hr followed by LPS-stimulation and measured after 18 hrs by Griess assay; format: functional, cell-based
[2] = Cytotoxicity against LPS-stimulated mouse RAW264.7 cells assessed as cell viability at antiinflammatory IC50 preincubated for 1 hr followed by LPS-stimulation and measured after 18 hrs by MTT assay relative to control; format: cell-based; conditions: LPS-stimulated RAW264.7 cells, read-out: Activity
RAW264.7 [3] = assay: Antiinflammatory activity in mouse RAW264.7 cells assessed as inhibition of LPS-induced COX2 expression at 1 to 5 uM preincubated for 1 hr followed by LPS-stimulation and measured after 16 hrs by Western blot analysis; format: functional, cell-based
RAW264.7 [4] = assay: Antiinflammatory activity in mouse RAW264.7 cells assessed as inhibition of LPS-induced iNOS expression at 1 to 5 uM preincubated for 1 hr followed by LPS-stimulation and measured after 16 hrs by Western blot analysis; format: functional, cell-based

SMILES | IC50 (RAW264.7 [1]) [µM] | other results
CC1(C)[C@H](O)CC[C@]2(C)[C@H]3CC=C4[C@@H]5C[C@](C)(CO)CC[C@]5(C(=O)O)CC[C@@]4(C)[C@]3(C)CC[C@@H]12 | > 50 | 
COc1cc(CCC(=O)O)ccc1O [DIHYDROFERULIC ACID] | > 50 | 
CC1(C)CC[C@]2(C(=O)O)CC[C@]3(C)C(=CC[C@@H]4[C@@]5(C)CC[C@H](O[C@@H]6OC[C@H](O)[C@H](O)[C@H]6O)C(C)(C)[C@@H]5CC[C@]43C)[C@@H]2C1 | 4 to 4.04 | 
C[C@@H]1O[C@@H](O[C@H]2[C@H](O)[C@@H](O)[C@H](OC[C@H]3O[C@@H](OC(=O)[C@]45CCC(C)(C)C[C@H]4C4=CC[C@@H]6[C@@]7(C)CC[C@H](O)[C@@](C)(CO)[C@@H]7CC[C@@]6(C)[C@]4(C)CC5)[C@H](O)[C@@H](O)[C@@H]3O)O[C@@H]2CO)[C@H](O)[C@H](O)[C@H]1O [KIZUTA CIRENSENOSIDE O SAPONIN K3] | > 50 | 
CC1(C)CC[C@]2(C(=O)O[C@@H]3O[C@H](CO[C@@H]4O[C@H](CO)[C@@H](O)[C@H](O)[C@H]4O)[C@@H](O)[C@H](O)[C@H]3O)CC[C@]3(C)C(=CC[C@@H]4[C@@]5(C)CC[C@H](O[C@@H]6OC[C@H](O)[C@H](O)[C@H]6O[C@@H]6O[C@H](CO)[C@@H](O)[C@H](O)[C@H]6O)C(C)(C)[C@@H]5CC[C@]43C)[C@@H]2C1 | > 50 | 
COC(=O)C(CC(=O)O)OC(=O)/C=C/c1ccc(O)c(O)c1 (stereo not drawn) | > 50 | 
C[C@@H]1O[C@@H](O[C@H]2[C@H](O[C@H]3CC[C@]4(C)[C@H]5CC=C6[C@@H]7CC(C)(C)CC[C@]7(C(=O)O)CC[C@@]6(C)[C@]5(C)CC[C@H]4C3(C)C)OC[C@H](O[C@@H]3O[C@H](CO)[C@@H](O)[C@H](O)[C@H]3O)[C@@H]2O)[C@H](O)[C@H](O)[C@H]1O[C@@H]1O[C@H](CO)[C@@H](O)[C@H](O)[C@H]1O | > 50 | 
CC1(C)CC[C@]2(C(=O)O)CC[C@]3(C)C(=CC[C@@H]4[C@@]5(C)CC[C@@H](O)[C@@](C)(CO)[C@@H]5CC[C@]43C)[C@@H]2C1 | > 50 | 
CC1(C)CC[C@]2(C(=O)O)CC[C@]3(C)C(=CC[C@@H]4[C@@]5(C)C[C@@H](O)[C@H](O)[C@@](C)(CO)[C@@H]5CC[C@]43C)[C@@H]2C1 [ARJUNOLIC ACID] | 15.2 | 
CC1(C)CC[C@]2(C(=O)O[C@@H]3O[C@H](CO[C@@H]4O[C@H](CO)[C@@H](O)[C@H](O)[C@H]4O)[C@@H](O)[C@H](O)[C@H]3O)CC[C@]3(C)C(=CC[C@@H]4[C@@]5(C)CC[C@H](O[C@@H]6OC[C@H](O)[C@H](O)[C@H]6O)[C@@](C)(CO)[C@@H]5CC[C@]43C)[C@@H]2C1 | > 50 | 
C[C@@H]1C[C@H]2[C@@H]3CCC4=CC(=O)C=C[C@]4(C)[C@@]3(F)[C@@H](O)C[C@]2(C)[C@@]1(O)C(=O)CO [DEXAMETHASONE] | 0.01 | 
CC1(C)CC[C@]2(C(=O)O[C@@H]3O[C@H](CO[C@@H]4O[C@H](CO)[C@@H](O)[C@H](O)[C@H]4O)[C@@H](O)[C@H](O)[C@H]3O)CC[C@]3(C)C(=CC[C@@H]4[C@@]5(C)CC[C@H](O[C@@H]6O[C@H](CO)[C@@H](O)[C@H](O)[C@H]6O)C(C)(C)[C@@H]5CC[C@]43C)[C@@H]2C1 | > 50 | 
C[C@@H]1O[C@@H](O[C@H]2[C@H](O[C@H]3CC[C@@]4(C)[C@@H](CC[C@]5(C)[C@@H]4CC=C4[C@@H]6CC(C)(C)CC[C@]6(C(=O)O)CC[C@]45C)[C@]3(C)CO)O[C@H](CO)[C@@H](O)[C@@H]2O)[C@H](O)[C@H](O)[C@H]1O | 4.2 to 4.21 | 
C[C@@H]1O[C@@H](O[C@H]2[C@H](O)[C@@H](O)[C@H](OC[C@H]3O[C@@H](OC(=O)[C@]45CCC(C)(C)C[C@H]4C4=CC[C@@H]6[C@@]7(C)CC[C@H](O[C@@H]8OC[C@H](O)[C@H](O)[C@H]8O[C@@H]8O[C@H](CO)[C@@H](O)[C@H](O)[C@H]8O)C(C)(C)[C@@H]7CC[C@@]6(C)[C@]4(C)CC5)[C@H](O)[C@@H](O)[C@@H]3O)O[C@@H]2CO)[C@H](O)[C@H](O)[C@H]1O | > 50 | 
C[C@@H]1O[C@@H](O[C@H]2[C@H](O[C@H]3CC[C@]4(C)[C@H]5CC=C6[C@@H]7CC(C)(C)CC[C@]7(C(=O)O[C@@H]7O[C@H](CO)[C@@H](O)[C@H](O)[C@H]7O)CC[C@@]6(C)[C@]5(C)CC[C@H]4C3(C)C)OC[C@H](O)[C@@H]2O)[C@H](O)[C@H](O)[C@H]1O | > 50 | 
C[C@@H]1O[C@@H](O[C@H]2[C@H](O)[C@@H](O)[C@H](OC[C@H]3O[C@@H](OC(=O)[C@]45CCC(C)(C)C[C@H]4C4=CC[C@@H]6[C@@]7(C)CC[C@H](O[C@@H]8OC[C@H](O)[C@H](O[C@@H]9OC[C@H](O)[C@H](O)[C@H]9O)[C@H]8O)C(C)(C)[C@@H]7CC[C@@]6(C)[C@]4(C)CC5)[C@H](O)[C@@H](O)[C@@H]3O)O[C@@H]2CO)[C@H](O)[C@H](O)[C@H]1O | > 50 | 
CC1(C)CC[C@]2(C(=O)O)CC[C@]3(C)C(=CC[C@@H]4[C@@]5(C)CC[C@H](O[C@@H]6O[C@H](CO)[C@@H](O)[C@H](O)[C@H]6O)[C@@](C)(CO)[C@@H]5CC[C@]43C)[C@@H]2C1 [Hederagenin-3-O-beta-D-glucopyranoside] | 13.4 | 
C[C@@H]1O[C@@H](O[C@H]2[C@H](O)[C@@H](O)[C@H](OC[C@H]3O[C@@H](OC(=O)[C@]45CCC(C)(C)C[C@H]4C4=CC[C@@H]6[C@@]7(C)CC[C@H](O[C@@H]8OC[C@H](O)[C@H](O)[C@H]8O)[C@@](C)(CO)[C@@H]7CC[C@@]6(C)[C@]4(C)CC5)[C@H](O)[C@@H](O)[C@@H]3O)O[C@@H]2CO)[C@H](O)[C@H](O)[C@H]1O [CAULOSIDE D] | 3.68 to 3.7 | viability at 18 h [2]: < 60%
C[C@@H]1O[C@@H](O[C@H]2[C@H](O[C@H]3CC[C@]4(C)[C@H]5CC=C6[C@@H]7CC(C)(C)CC[C@]7(C(=O)O)CC[C@@]6(C)[C@]5(C)CC[C@H]4C3(C)C)O[C@H](CO)[C@@H](O)[C@@H]2O)[C@H](O)[C@H](O)[C@H]1O | 1.5 | viability at 18 h [2]: < 60%
CC1(C)CC[C@]2(C(=O)O)CC[C@]3(C)C(=CC[C@@H]4[C@@]5(C)CC[C@H](O[C@@H]6OC[C@H](O)[C@H](O)[C@H]6O)[C@@](C)(CO)[C@@H]5CC[C@]43C)[C@@H]2C1 | 2.25 to 2.3 | 
CC1(C)CC[C@]2(C(=O)O)CC[C@]3(C)C(=CC[C@@H]4[C@@]5(C)CC[C@H](O[C@@H]6O[C@H](CO)[C@@H](O)[C@H](O)[C@H]6O[C@@H]6OC[C@H](O)[C@H](O)[C@H]6O)C(C)(C)[C@@H]5CC[C@]43C)[C@@H]2C1 | 3.1 to 3.13 | 
COc1cc(O)cc(OC)c1O[C@@H]1O[C@H](CO)[C@@H](O)[C@H](O)[C@H]1O [LEONURISIDE] | > 50 | 
C[C@@H]1O[C@@H](O[C@H]2[C@H](O[C@H]3CC[C@@]4(C)[C@@H](CC[C@]5(C)[C@@H]4CC=C4[C@@H]6CC(C)(C)CC[C@]6(C(=O)O)CC[C@]45C)[C@]3(C)CO)OC[C@H](O)[C@@H]2O)[C@H](O)[C@H](O)[C@H]1O [ALPHA-HEDERIN] | 1.1 | inhibition (RAW264.7 [3]): Active; inhibition (RAW264.7 [4]): Active
C[C@@H]1O[C@@H](O[C@H]2[C@H](O[C@H]3CC[C@]4(C)[C@H]5CC=C6[C@@H]7CC(C)(C)CC[C@]7(C(=O)O)CC[C@@]6(C)[C@]5(C)CC[C@H]4C3(C)C)OC[C@H](O)[C@@H]2O)[C@H](O)[C@H](O)[C@H]1O | 1.3 to 1.33 | inhibition (RAW264.7 [3]): Active; inhibition (RAW264.7 [4]): Active
C[C@@H]1O[C@@H](O[C@H]2[C@H](O[C@H]3CC[C@]4(C)[C@H]5CC=C6[C@@H]7CC(C)(C)CC[C@]7(C(=O)O[C@@H]7O[C@H](CO[C@@H]8O[C@H](CO)[C@@H](O[C@@H]9O[C@@H](C)[C@H](O)[C@@H](O)[C@H]9O)[C@H](O)[C@H]8O)[C@@H](O)[C@H](O)[C@H]7O)CC[C@@]6(C)[C@]5(C)CC[C@H]4C3(C)C)OC[C@H](O)[C@@H]2O)[C@H](O)[C@H](O)[C@H]1O [HEDERASAPONIN B] | > 50 | 
C[C@@H]1O[C@@H](O[C@H]2[C@H](O[C@H]3CC[C@@]4(C)[C@@H](CC[C@]5(C)[C@@H]4CC=C4[C@@H]6CC(C)(C)CC[C@]6(C(=O)O[C@@H]6O[C@H](CO[C@@H]7O[C@H](CO)[C@@H](O[C@@H]8O[C@@H](C)[C@H](O)[C@@H](O)[C@H]8O)[C@H](O)[C@H]7O)[C@@H](O)[C@H](O)[C@H]6O)CC[C@]45C)[C@]3(C)CO)OC[C@H](O)[C@@H]2O)[C@H](O)[C@H](O)[C@H]1O [KALOPANAXSAPONIN B] | > 50 | 
CC1=CC(=O)CC(C)(C)[C@@]1(O)/C=C/[C@H](C)O | > 50 | 

Source: ChEMBL document CHEMBL4387783, “Bioactive triterpene glycosides from the fruit of Stauntonia hexaphylla and insights into the molecular mechanism of its inflammatory effects” (Bioorg Med Chem Lett, 2019)
